No end group written: not given here.
Columns and labels:
[1] = system: E. coli ATCC 25922; assay: Potential for inducing bacterial resistance (serial subculture at 0.5 MIC); assay type: cell-based; conditions: repeated treatment with 0.5× MIC, 18 days, two independent assays in duplicate
Method: The MIC against this subculture was then determined by micro-dilution in broth. […] Two independent assays were carried out in duplicate. MIC changes were plotted for each subculture (day of assay).

[2] = system: P. aeruginosa 27853; assay: MIC by broth microdilution; assay type: cell-based; conditions: MHB, 18 h, 37 °C
Method: The standard broth microdilution method was used for determining the peptides’ MIC [41]. […] Bacteria in Müller–Hinton broth (MHB) were used as negative control. […] The MIC was determined as the lowest peptide concentration at which bacterial growth was not detected.

[3] = system: human red blood cells (hRBC); assay: Haemolytic activity (MHC); assay type: cell-based; conditions: 5% v/v hRBC in 1X PBS, 200–0.39 µM, 1 h, 37 °C, absorbance 560 nm
Method: A haemolytic activity assay was used for determining whether peptides acted on hRBC membrane by calculating the minimum haemolytic concentration (MHC). Briefly, 100 µL serial dilutions of peptides were incubated in a 96-well plate with an equal volume of a fresh hRBC suspension at 5% v/v in 1X PBS (200–0.39 µM final peptide concentrations). The samples were spun at 1000× g for 5 min after having been incubated at 37 °C for 1 h and a Multiskan spectrometer (Thermo Fisher) was used for measuring 100 µL supernatant absorbance at 560 nm. Treated hRBC absorbance 0.1% Triton X-100 or 100% haemolysis was used as positive control.

[4] = system: human red blood cells (hRBC); conditions: cited from earlier work
Source text: (§1) Its therapeutic index (TI) calculated for E. coli ML35 is 0.045, indicating low selectivity [[ ...

[5] = system: HepG2 human cell line; conditions: cited from earlier work
Source text: as §1

[6] = system: HeLa human cell line; conditions: cited from earlier work
Source text: as §1

[7] = system: E. coli 25922; assay: Antibacterial activity in the presence of human sera; assay type: cell-based; conditions: peptide diluted in fresh human sera (100%), then inoculum in MHB ~5 × 10^5 CFU/mL, 18 h, 37 °C
Method: The second assay involved peptide dilution in fresh human sera (100%) pre-incubated for 6 h at 37 °C in a humid chamber before putting them in contact with the bacterial inoculum diluted in MHB (~5 × 10^5 CFU/mL). The assay was incubated and read as mentioned in the microdilution section.

[8] = system: E. coli 35218 (ampicillin-resistant ATCC 35218 strain); assay type: cell-based; conditions: broth microdilution
[9] = system: E. coli ML35 43827; assay type: cell-based; conditions: broth microdilution
[10] = system: E. coli ATCC 11775; assay type: cell-based; conditions: broth microdilution
[11] = system: E. coli 35218; assay type: cell-based
Method: (§2) Bactericidal activity was evaluated by sowing an aliquot of Luria Bertani agar (LBA) in the wells where no growth had been detected in the MIC assay.

[12] = system: E. coli ATCC 25922; assay: Bactericidal activity (MBC); assay type: cell-based; conditions: aliquots of no-growth MIC wells on LBA, 18 h, 37 °C; kills 99.9%
Method: as §2

[13] = system: E. coli ML35 43827; assay: Bactericidal activity (MBC); assay type: cell-based
Method: as §2

[14] = system: E. coli ATCC 25922; assay type: cell-based

Compound | fold increase in MIC over initial MIC [1] [fold] | MIC P. aeruginosa 27853 [2] [µM] | MHC (minimum haemolytic concentration) [3] [µM] | MHC against human red blood cells [4] [µM] | cytotoxic activity against HepG2 [5] | cytotoxic activity against HeLa [6] | MIC against E. coli 25922, Serum (without Pre-Incubation) [7] [µM] | MIC E. coli 35218 [8] [µM] | MIC E. coli ML35 43827 [9] [µM] | MIC E. coli 11775 [10] [µM] | MBC E. coli 35218 [11] [µM] | MBC E. coli 25922 [12] [µM] | MBC E. coli ML35 43827 [13] [µM] | MIC E. coli 25922 ([14]; broth microdilution, MHB, ~5 × 10^5 CFU/mL, 18 h, 37 °C, OD 620 nm, 100 to 0.2 µM) [µM] | MIC against E. coli 25922, MHB ([14]; no serum) [µM]
CN(C)[C@@H]1C(O)=C(C(N)=O)C(=O)[C@@]2(O)C(O)=C3C(=O)c4c(O)cccc4[C@@](C)(O)[C@H]3C[C@@H]12 [Tetracycline, tetracycline, reference compound] | 128 | – | – | – | – | – | – | – | – | – | – | – | – | – | –
RYRRKKKMKKALQYIKLLKE-NH2 [Peptide 35409, reference compound] | – | >100 | 1.56 | 1.5 | did not have cytotoxic activity | did not have cytotoxic activity | 25 | 6 | 25 | >100 | 6 | 50 | 25 | 25 | 25

Reference: paper PMC7356157, “Shorter Antibacterial Peptide Having High Selectivity for E. coli Membranes and Low Potential for Inducing Resistance” (Microorganisms, 2020)
